Patent publication US9963434B2, “N-arylmethyl sulfonamide negative modulators of NR2A” (LUC THERAPEUTICS, priority 2013, dated 2018)
pIC50: −log10 of the molar value. Like-named read-outs stand apart in the source and are kept apart here.

Target: NR1/NR2A (Homo sapiens (Human), UniProt Q05586+Q12879)
Experiment: FDSS Ca2+ influx inhibition assay in HEK293 cells expressing NR1/NR2A
Type: cell-based
Details: 3 μM glutamate, 3 μM glycine, 1 mM Ca2+
Procedure: Cell Culture and plating: HEK293 cells expressing NR1/NR2A (Chantest, Cleveland, Ohio) were grown to 70-80% confluency as an adherent monolayer in standard tissue culture flasks at 37° C., 5% CO2 per supplier's instructions.
After induction, cell culture medium was removed and cells were rinsed once with Ca^2+ and Mg^2+-free Dulbecco's phosphate buffered saline. Cells were then removed from the flask using TrypLE™ Express (Life Technologies) according to the manufacturer's instructions and collected to 50 ml centrifuge tubes. Following two washes in Ca^2+/Mg^2+-free HBSS with 20 mM HEPES (HHnoCa), cells were counted and viability assessed using trypan blue. To load cells with Ca^2+-sensitive dye, they were resuspended in fluo-8 plus Component B (AAT Bioquest Products) diluted in HHnoCa and incubated 15 minutes at 37° C., followed by 30 minutes at room temp (in dark). Cells were then washed and resuspended in HHnoCa to remove extracellular dye and plated in 384-well plates (Falcon, uncoated) at 20,000-30,000 cells/well in a final volume of 25 μL/well.
FDSS Assay: To each well of the plate, 10 μL test compound, control (MK801) or HHnoCa buffer was added to a final concentration of 10 μM with a final concentration of DMSO of 0.1%. Following 10 minutes pre-incubation in the dark, plates are loaded onto the Hamamatsu FDSS 6000. After collecting baseline fluorescence images, 3 μM glutamate, 3 μM glycine, and 1 mM Ca^2+ in HHnoCa buffer is added to each well, and Ca^2+ is recorded for 3 minutes. Data were processed by computing ratio of fluorescence at the end of data collection to baseline fluorescence to assess degree of Ca^2+ influx inhibition relative to that observed in MK801.

[1] = inhibition relative to MK801, read-out: NR2A IC50

Sequence of NR1/NR2A (Q12879 23-1464, other chains not shown): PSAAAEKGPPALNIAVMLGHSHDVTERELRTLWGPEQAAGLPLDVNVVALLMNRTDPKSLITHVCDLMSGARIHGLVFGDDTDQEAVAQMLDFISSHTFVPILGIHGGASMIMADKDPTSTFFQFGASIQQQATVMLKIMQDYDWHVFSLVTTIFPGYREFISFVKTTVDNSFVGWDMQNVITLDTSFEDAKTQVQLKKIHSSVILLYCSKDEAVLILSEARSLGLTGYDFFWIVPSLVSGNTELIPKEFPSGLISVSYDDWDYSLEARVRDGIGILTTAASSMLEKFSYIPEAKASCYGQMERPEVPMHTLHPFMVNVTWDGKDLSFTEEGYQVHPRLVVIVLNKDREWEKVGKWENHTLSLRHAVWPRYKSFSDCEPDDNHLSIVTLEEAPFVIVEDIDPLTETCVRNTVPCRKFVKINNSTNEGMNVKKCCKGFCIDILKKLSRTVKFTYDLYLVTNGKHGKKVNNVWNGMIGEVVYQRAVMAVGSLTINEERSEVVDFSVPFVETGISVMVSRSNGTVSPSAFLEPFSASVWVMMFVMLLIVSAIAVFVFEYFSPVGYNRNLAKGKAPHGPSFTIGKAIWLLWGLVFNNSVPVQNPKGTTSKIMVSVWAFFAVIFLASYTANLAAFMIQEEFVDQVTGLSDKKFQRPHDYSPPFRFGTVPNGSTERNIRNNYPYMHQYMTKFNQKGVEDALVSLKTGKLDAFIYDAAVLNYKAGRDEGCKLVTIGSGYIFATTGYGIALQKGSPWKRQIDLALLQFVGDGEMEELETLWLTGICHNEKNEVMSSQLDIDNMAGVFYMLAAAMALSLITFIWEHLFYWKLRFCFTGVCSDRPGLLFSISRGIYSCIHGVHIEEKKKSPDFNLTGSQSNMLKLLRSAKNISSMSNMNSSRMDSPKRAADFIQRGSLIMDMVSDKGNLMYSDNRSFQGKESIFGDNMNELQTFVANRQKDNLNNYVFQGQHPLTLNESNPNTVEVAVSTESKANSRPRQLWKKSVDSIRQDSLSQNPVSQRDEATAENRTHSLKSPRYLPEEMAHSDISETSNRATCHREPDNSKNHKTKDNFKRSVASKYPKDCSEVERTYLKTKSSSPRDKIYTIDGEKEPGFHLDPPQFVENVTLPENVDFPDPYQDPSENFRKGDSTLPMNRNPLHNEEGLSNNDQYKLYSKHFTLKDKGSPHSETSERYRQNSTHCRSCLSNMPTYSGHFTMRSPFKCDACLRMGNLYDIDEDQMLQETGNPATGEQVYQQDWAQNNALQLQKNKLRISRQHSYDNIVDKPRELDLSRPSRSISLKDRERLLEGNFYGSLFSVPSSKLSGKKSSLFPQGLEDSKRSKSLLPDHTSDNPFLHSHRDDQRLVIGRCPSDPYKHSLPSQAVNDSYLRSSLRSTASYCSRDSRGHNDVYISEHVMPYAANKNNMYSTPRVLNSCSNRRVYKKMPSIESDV

What does the source list for `CC(=O)N1CCc2cc(S(=O)(=O)NCc3cnc(C(=O)NCc4cnc(C)s4)cn3)ccc21` [5-(1-acetyl-2,3-dihydro-1H-indole-5-sulfonamidomethyl)-N-[(2-methyl-1,3-thiazol-5-yl)methyl]pyrazine-2-carboxamide]?
pIC50 [1]: 5.00; pIC50 (read-out: Binned Activity): < 5.00

Which results are given for `CC(=O)N1CCc2cc(S(=O)(=O)NCc3ccc(C(=O)NCc4cnc(C)s4)nc3)ccc21` [5-(1-acetyl-2,3-dihydro-1H-indole-5-sulfonamidomethyl)-N-[(2-methyl-1,3-thiazol-5-yl)methyl]pyridine-2-carboxamide]?
pIC50 [1]: 5.00; pIC50 (read-out: Binned Activity): < 5.00

`Cc1ncc(CNC(=O)c2cnc(CNS(=O)(=O)c3cc4ccccc4s3)cn2)s1` [5-(1-benzothiophene-2-sulfonamidomethyl)-N-[(2-methyl-1,3-thiazol-5-yl)methyl]pyrazine-2-carboxamide] was tested. Which pIC50 [1] did it give?
Its pIC50 is 5.00.

And the pIC50 (read-out: Binned Activity)?
The pIC50 was less than 5.00.

With `Cc1ncc(CNC(=O)c2ccc(CNS(=O)(=O)c3cc4ccccc4s3)cn2)s1` [5-(1-benzothiophene-2-sulfonamidomethyl)-N-[(2-methyl-1,3-thiazol-5-yl)methyl]pyridine-2-carboxamide] as the compound, how does the pIC50 [1] read?
The pIC50 was 5.00.

What about the pIC50 (read-out: Binned Activity) of the same compound?
Its pIC50 is less than 5.00.

`Cc1ncc(CNC(=O)c2ccc(CNS(=O)(=O)c3csc4ccccc34)cn2)s1` [5-(1-benzothiophene-3-sulfonamidomethyl)-N-[(2-methyl-1,3-thiazol-5-yl)methyl]pyridine-2-carboxamide] was tested. Which pIC50 [1] did it give?
The pIC50 was 5.00.

What about the pIC50 (read-out: Binned Activity) of the same compound?
The pIC50 was less than 5.00.

With `Cc1ncc(CNC(=O)c2ccc(CNS(=O)(=O)c3cccc4nsnc34)cn2)s1` [5-(2,1,3-benzothiadiazole-4-sulfonamidomethyl)-N-[(2-methyl-1,3-thiazol-5-yl)methyl]pyridine-2-carboxamide] as the compound, how does the pIC50 [1] read?
The pIC50 was 5.00.

What about the pIC50 (read-out: Binned Activity) of the same compound?
The pIC50 was less than 5.00.

What does the source list for `Cc1ncc(CNC(=O)c2cnc(CNS(=O)(=O)c3ccc(Cl)nc3Cl)cn2)s1` [5-(2,6-dichloropyridine-3-sulfonamidomethyl)-N-[(2-methyl-1,3-thiazol-5-yl)methyl]pyrazine-2-carboxamide]?
pIC50 [1]: 5.00; pIC50 (read-out: Binned Activity): < 5.00

`Cc1ncc(CNC(=O)c2ccc(CNS(=O)(=O)c3ccc(Cl)nc3Cl)cn2)s1` [5-(2,6-dichloropyridine-3-sulfonamidomethyl)-N-[(2-methyl-1,3-thiazol-5-yl)methyl]pyridine-2-carboxamide] was tested. Which pIC50 [1] did it give?
Its pIC50 is 5.00.

What about the pIC50 (read-out: Binned Activity) of the same compound?
Its pIC50 is less than 5.00.

`Cc1ncc(CNC(=O)c2cnc(CNS(=O)(=O)c3ccccc3F)c(C)n2)s1` [5-(2-fluorobenzenesulfon-amidomethyl)-6-methyl-N-[(2-methyl-1,3-thiazol-5-yl)methyl]pyrazine-2-carboxamide] was tested. Which pIC50 [1] did it give?
Its pIC50 is 5.00.

And the pIC50 (read-out: Binned Activity)?
The pIC50 was less than 5.00.

With `Cc1ncc(CNC(=O)c2cnc(CNS(=O)(=O)c3ccccc3F)cn2)s1` [5-(2-fluorobenzenesulfon-amidomethyl)-N-[(2-methyl-1,3-thiazol-5-yl)methyl]pyrazine-2-carboxamide] as the compound, how does the pIC50 [1] read?
Its pIC50 is 5.00.

And the pIC50 (read-out: Binned Activity)?
The pIC50 was less than 5.00.

How did the pIC50 [1] turn out when `Cc1ncc(CNC(=O)c2ccc(CNS(=O)(=O)c3ccccc3F)cn2)s1` [5-(2-fluorobenzenesulfon-amidomethyl)-N-[(2-methyl-1,3-thiazol-5-yl)methyl]pyridine-2-carboxamide] was run?
The pIC50 was 5.00.

And the pIC50 (read-out: Binned Activity)?
Its pIC50 is less than 5.00.

With `Cc1ncc(CNC(=O)c2cnc(CNS(=O)(=O)c3ccc(Cl)c(Cl)c3)c(C)n2)s1` [5-(3,4-dichlorobenzenesulfon-amidomethyl)-6-methyl-N-[(2-methyl-1,3-thiazol-5-yl)methyl]pyrazine-2-carboxamide] as the compound, how does the pIC50 (read-out: Binned Activity) read?
The pIC50 was 6.00 to 7.00.

How did the pIC50 [1] turn out when `Cc1ncc(CNC(=O)c2cnc(CNS(=O)(=O)c3ccc(Cl)c(Cl)c3)cn2)s1` [5-(3,4-dichlorobenzenesulfon-amidomethyl)-N-[(2-methyl-1,3-thiazol-5-yl)methyl]pyrazine-2-carboxamide] was run?
Its pIC50 is 5.00.

What about the pIC50 (read-out: Binned Activity) of the same compound?
The pIC50 was less than 5.00.

With `Cc1ncc(CNC(=O)c2ccc(CNS(=O)(=O)c3ccc(Cl)c(Cl)c3)cn2)s1` [5-(3,4-dichlorobenzenesulfon-amidomethyl)-N-[(2-methyl-1,3-thiazol-5-yl)methyl]pyridine-2-carboxamide] as the compound, how does the pIC50 (read-out: Binned Activity) read?
Its pIC50 is 5.00 to 6.00.

How did the pIC50 (read-out: Binned Activity) turn out when `Cc1ncc(CNC(=O)c2cnc(CNS(=O)(=O)c3ccc(F)c(F)c3)cn2)s1` [5-(3,4-difluorobenzenesulfon-amidomethyl)-N-[(2-methyl-1,3-thiazol-5-yl)methyl]pyrazine-2-carboxamide] was run?
The pIC50 was 6.00 to 7.00.

How did the pIC50 (read-out: Binned Activity) turn out when `Cc1ncc(CNC(=O)c2ccc(CNS(=O)(=O)c3ccc(F)c(F)c3)cn2)s1` [5-(3,4-difluorobenzenesulfon-amidomethyl)-N-[(2-methyl-1,3-thiazol-5-yl)methyl]pyridine-2-carboxamide] was run?
Its pIC50 is 6.00 to 7.00.

What does the source list for `Cc1ncc(CNC(=O)c2cnc(CNS(=O)(=O)c3cc(Cl)cc(Cl)c3)c(C)n2)s1` [5-(3,5-dichlorobenzenesulfon-amidomethyl)-6-methyl-N-[(2-methyl-1,3-thiazol-5-yl)methyl]pyrazine-2-carboxamide]?
pIC50 [1]: 5.00; pIC50 (read-out: Binned Activity): < 5.00

`Cc1ncc(CNC(=O)c2cnc(CNS(=O)(=O)c3cc(Cl)cc(Cl)c3)cn2)s1` [5-(3,5-dichlorobenzenesulfon-amidomethyl)-N-[(2-methyl-1,3-thiazol-5-yl)methyl]pyrazine-2-carboxamide] was tested. Which pIC50 [1] did it give?
Its pIC50 is 5.00.

What about the pIC50 (read-out: Binned Activity) of the same compound?
The pIC50 was less than 5.00.

With `Cc1ncc(CNC(=O)c2ccc(CNS(=O)(=O)c3cc(Cl)cc(Cl)c3)cn2)s1` [5-(3,5-dichlorobenzenesulfon-amidomethyl)-N-[(2-methyl-1,3-thiazol-5-yl)methyl]pyridine-2-carboxamide] as the compound, how does the pIC50 [1] read?
The pIC50 was 5.00.

What about the pIC50 (read-out: Binned Activity) of the same compound?
The pIC50 was less than 5.00.

`Cc1ncc(CNC(=O)c2cnc(CNS(=O)(=O)c3cc(F)cc(F)c3)c(C)n2)s1` [5-(3,5-difluorobenzenesulfon-amidomethyl)-6-methyl-N-[(2-methyl-1,3-thiazol-5-yl)methyl]pyrazine-2-carboxamide] was tested. Which pIC50 (read-out: Binned Activity) did it give?
Its pIC50 is 6.00 to 7.00.

`Cc1ncc(CNC(=O)c2cnc(CNS(=O)(=O)c3cc(F)cc(F)c3)cn2)s1` [5-(3,5-difluorobenzenesulfon-amidomethyl)-N-[(2-methyl-1,3-thiazol-5-yl)methyl]pyrazine-2-carboxamide] was tested. Which pIC50 [1] did it give?
Its pIC50 is 5.00.

And the pIC50 (read-out: Binned Activity)?
The pIC50 was less than 5.00.

Which results are given for `Cc1ncc(CNC(=O)c2ccc(CNS(=O)(=O)c3cc(F)cc(F)c3)cn2)s1` [5-(3,5-difluorobenzenesulfon-amidomethyl)-N-[(2-methyl-1,3-thiazol-5-yl)methyl]pyridine-2-carboxamide]?
pIC50 [1]: 5.00; pIC50 (read-out: Binned Activity): < 5.00

With `CCc1nc(C(=O)NCc2cnc(C)s2)cnc1CNS(=O)(=O)c1ccc(F)c(Cl)c1` [5-(3-chloro-4-fluorobenzenesulfon-amidomethyl)-6-ethyl-N-[(2-methyl-1,3-thiazol-5-yl)methyl]pyrazine-2-carboxamide] as the compound, how does the pIC50 (read-out: Binned Activity) read?
The pIC50 was greater than 7.00.

How did the pIC50 (read-out: Binned Activity) turn out when `Cc1ncc(CNC(=O)c2cnc(CNS(=O)(=O)c3ccc(F)c(Cl)c3)c(C)n2)s1` [5-(3-chloro-4-fluorobenzenesulfon-amidomethyl)-6-methyl-N-[(2-methyl-1,3-thiazol-5-yl)methyl]pyrazine-2-carboxamide] was run?
Its pIC50 is greater than 7.00.

With `O=C(NC1CCS(=O)(=O)C1)c1cnc(CNS(=O)(=O)c2ccc(F)c(Cl)c2)cn1` (stereo not drawn) [5-(3-chloro-4-fluorobenzenesulfon-amidomethyl)-N-(1,1-dioxo-1λ^6-thiolan-3-yl)pyrazine-2-carboxamide] as the compound, how does the pIC50 [1] read?
The pIC50 was 5.00.

And the pIC50 (read-out: Binned Activity)?
Its pIC50 is less than 5.00.

How did the pIC50 [1] turn out when `O=C(NC1CCS(=O)(=O)C1)c1ccc(CNS(=O)(=O)c2ccc(F)c(Cl)c2)cn1` (stereo not drawn) [5-(3-chloro-4-fluorobenzenesulfon-amidomethyl)-N-(1,1-dioxo-1λ^6-thiolan-3-yl)pyridine-2-carboxamide] was run?
The pIC50 was 5.00.

What about the pIC50 (read-out: Binned Activity) of the same compound?
The pIC50 was less than 5.00.

With `O=C(NCc1ccno1)c1ccc(CNS(=O)(=O)c2ccc(F)c(Cl)c2)cn1` [5-(3-chloro-4-fluorobenzenesulfon-amidomethyl)-N-(1,2-oxazol-5-ylmethyl)pyridine-2-carboxamide] as the compound, how does the pIC50 (read-out: Binned Activity) read?
The pIC50 was 5.00 to 6.00.

`O=C(NCc1cocn1)c1cnc(CNS(=O)(=O)c2ccc(F)c(Cl)c2)cn1` [5-(3-chloro-4-fluorobenzenesulfon-amidomethyl)-N-(1,3-oxazol-4-ylmethyl)pyrazine-2-carboxamide] was tested. Which pIC50 [1] did it give?
The pIC50 was 5.00.

What about the pIC50 (read-out: Binned Activity) of the same compound?
Its pIC50 is less than 5.00.

Which results are given for `O=C(NCc1cocn1)c1ccc(CNS(=O)(=O)c2ccc(F)c(Cl)c2)cn1` [5-(3-chloro-4-fluorobenzenesulfon-amidomethyl)-N-(1,3-oxazol-4-ylmethyl)pyridine-2-carboxamide]?
pIC50 [1]: 5.00; pIC50 (read-out: Binned Activity): < 5.00

`O=C(NCc1cnco1)c1ccc(CNS(=O)(=O)c2ccc(F)c(Cl)c2)cn1` [5-(3-chloro-4-fluorobenzenesulfon-amidomethyl)-N-(1,3-oxazol-5-ylmethyl)pyridine-2-carboxamide] was tested. Which pIC50 (read-out: Binned Activity) did it give?
The pIC50 was 5.00 to 6.00.

With `O=C(NCc1nccs1)c1cnc(CNS(=O)(=O)c2ccc(F)c(Cl)c2)cn1` [5-(3-chloro-4-fluorobenzenesulfon-amidomethyl)-N-(1,3-thiazol-2-ylmethyl)pyrazine-2-carboxamide] as the compound, how does the pIC50 [1] read?
Its pIC50 is 5.00.

And the pIC50 (read-out: Binned Activity)?
Its pIC50 is less than 5.00.

With `O=C(NCc1nccs1)c1ccc(CNS(=O)(=O)c2ccc(F)c(Cl)c2)cn1` [5-(3-chloro-4-fluorobenzenesulfon-amidomethyl)-N-(1,3-thiazol-2-ylmethyl)pyridine-2-carboxamide] as the compound, how does the pIC50 (read-out: Binned Activity) read?
Its pIC50 is 5.00 to 6.00.
